Measurements taken from the SangsterLogP compilation.

Assay: method code SF-AS, from DOI: 10.1021/jm00114a020, PMID: 1920359
Settings: pH 7.4

| SMILES | logD |
| --- | --- |
| CC(C)(O)CCS(=O)(=O)c1ccc(S(N)(=O)=O)cc1 | -0.09 |
| NS(=O)(=O)c1ccc(SCCCCO)c(F)c1 | 1.28 |
| NS(=O)(=O)c1ccc(CCCCCO)cc1 | 1.04 |
| NS(=O)(=O)c1ccc(SCCCCO)cc1 | 0.93 |
| NS(=O)(=O)c1ccc(SCCCO)c(Cl)c1 | 1.59 |
| CC(C)(O)CCSc1ccc(S(N)(=O)=O)cc1 | 1.4 |
| CC(=O)OCCCCCc1ccc(S(N)(=O)=O)cc1 | 1.86 |
| NS(=O)(=O)c1ccc(SCCO)c(F)c1 | 0.72 |
| NS(=O)(=O)c1ccc(SCCO)cc1 | 0.36 |
| NS(=O)(=O)c1ccc(SCCO)c([N+](=O)[O-])c1 | 0.38 |
| CC(=O)OCCCc1ccc(S(N)(=O)=O)cc1 | 0.98 |
| NS(=O)(=O)c1ccc(SCCCO)c([N+](=O)[O-])c1 | 0.96 |
| NS(=O)(=O)c1ccc(SCCCO)c(F)c1 | 0.99 |
| NS(=O)(=O)c1ccc(SCCCO)cc1 | 0.8 |
| NS(=O)(=O)c1ccc(CCCCO)cc1 | 0.57 |
| NS(=O)(=O)c1ccc(SCCCCCO)cc1 | 1.04 |

More lines, now with the values ahead:

| logD | SMILES |
| --- | --- |
| -0.05 | NS(=O)(=O)c1ccc(S(=O)(=O)CCCO)c([N+](=O)[O-])c1 |
| 0.85 | NS(=O)(=O)c1ccc(SCCCO)s1 |
| 0.11 | CC(=O)OCCS(=O)(=O)c1ccc(S(N)(=O)=O)s1 |
| -0.41 | NS(=O)(=O)c1ccc(S(=O)(=O)CCCO)c(F)c1 |
| -0.85 | NS(=O)(=O)c1ccc(S(=O)(=O)CCO)cc1 |
| -0.6 | NS(=O)(=O)c1ccc(S(=O)(=O)CCO)c(F)c1 |
| -0.48 | Nc1cc(S(N)(=O)=O)ccc1S(=O)(=O)CCCO |
| -0.64 | NS(=O)(=O)c1ccc(S(=O)(=O)CCCO)cc1 |
| 0.17 | CC(=O)OCCCS(=O)(=O)c1ccc(S(N)(=O)=O)s1 |
| 0.17 | NS(=O)(=O)c1ccc(CCCO)cc1 |
| -0.14 | COCC(=O)OCCCS(=O)(=O)c1ccc(S(N)(=O)=O)s1 |
| 0.95 | NS(=O)(=O)c1ccc(SCCCCO)s1 |
| -0.47 | COC(=O)c1cc(S(N)(=O)=O)ccc1S(=O)(=O)CCO |
| -0.54 | NS(=O)(=O)c1ccc(S(=O)(=O)CCO)s1 |
| -0.6 | Nc1cc(S(N)(=O)=O)ccc1S(=O)(=O)CCO |
| 0.38 | NS(=O)(=O)c1ccc(SCCO)s1 |
| -0.3 | COC(=O)c1cc(S(N)(=O)=O)ccc1S(=O)(=O)CCCO |
| -0.36 | NS(=O)(=O)c1ccc(S(=O)(=O)CCCO)s1 |
| -0.26 | NS(=O)(=O)c1ccc(S(=O)(=O)CCCCO)cc1 |
| -0.34 | NS(=O)(=O)c1ccc(S(=O)(=O)CCCCO)s1 |
